According to patent US6818639B2, “Pharmaceutical combination formulation and method of treatment with the combination” (Biovitrum AB, priority 2000, dated 2004):
Read-outs that look alike come from different tables or passages of the source.

Tests used:
ob/ob mice = test: Food intake test in ob/ob mice; format: in vivo
Procedure: 5-HT2C receptor agonists (2R)-methyl-1-{3-[2-(3-pyridinyloxy)ethoxy]-2-pyrazinyl}piperazine, fumarate (“PNU-183933F”) and (2R)-1-(3-{2-[(2-ethoxy-3-pyridinyl)oxy]ethoxy}-2-pyrazinyl)-2-methylpiperazine, fumarate (“BVT.2938F”) were dissolved in saline (0.9% NaCl) and diluted in the same vehicle to the appropriate concentration.
5-HT6 receptor antagonists 6-methyl-9-(phenylsulfonyl)-1,2,3,4,5,6-hexahydroazepino[4,5-b]indole, hydrochloride (“PNU-186053A”) and 1-(phenylsulfonyl)-4-(1-piperazinyl)-1H-indole, hydrochloride (5-HT6 receptor antagonist (“BVT.5182C”) were dissolved and diluted in 25% cyclodextrin.
Male mice 8-9 weeks old (C57BL/6JBom-Lep^ob (ob/ob), Bomholtsgaard, Denmark) with an average body weight of 45 g were used. The animals were housed singly in cages at 23±1° C., 40-60% humidity and had free access to water and standard laboratory chow. The 12/12 h light/dark cycle was set to lights off at 5 p.m. The animals were conditioned for at least one week before start of study. During experimental sessions, the animals obtained special chow (BioServ, Frenchtown, N.J., USA dust-free precision pellets weighing 20 mg each).
At the start of the study the animals were transferred to special cages “operant test cages” (Habitest Modular Animal Behavior Test System; Colbourn Instr, Allentown, Pa., USA). These cages consist of a feeder trough with sensors for measurement of food intake, an optic lickometer for registration of water intake and an infrared-based monitor for recording overall general motor activity. The monitors are coupled to a computer, which controls and monitor events continuously. Food pellets were weighed to the amount needed for one whole study and water bottles were filled with fresh tap water and weighed. The animals were conditioned to their new environment for three days to establish baseline values. The animals were weighed at 3 p.m. at the start and at the end of the study. The compounds were administered between 4.20 and 5.00 p.m. before dark onset. Three groups of animals received (i) 5-HT6 antagonist in 25% cyclodextrin; (ii) 5-HT2C agonist in saline; and (iii) the combination 5-HT2C agonist/5-HT6 antagonist, respectively. When combined, 5-HT6 antagonist or saline was administered 30 min before administration of the 5-HT2C agonist or 25% cyclodextrin. A fourth group received respectively vehicle administered in the same way. The study ended on the fifth day. Weighing was performed with a computer-assisted Mettler-Toledo PR5002/PR802 balance.
Each dose group consisted of 12-16 animals. […] The values were expressed as % of basal food intake (mean±SEM) for the difference between food intake before treatment and 3 h (5 pm-8 pm), 6 h (5 pm-11 pm), 12 h (5 pm-5 am), 21 h (5 pm-2 pm).

humans = conditions: cited from earlier work
[1] = tested on: mice that express the normal 5-HT2C receptor / mutated inactive form; conditions: cited from earlier work
[2] = combination BVT.2938F 5 mg/kg subcutaneously + BVT.5182C 3 mg/kg subcutaneously, at 12 and 21 hours following administration, FIG. 2
[3] = combination PNU-186053A 50 mg/kg subcutaneously + PNU-183933F 50 mg/kg per orally, FIG. 1

Structure (SMILES) | food consumption (food intake), combined treatment vs compounds given alone (ob/ob mice; [2]) | food consumption (food intake), combined treatment vs compounds given alone (ob/ob mice; [3]) | other results
CCOc1ncccc1OCCOc1nccnc1N1CCNC[C@H]1C.O=C(O)/C=C/C(=O)O [BVT.2938F, (2R)-1-(3-{2-[(2-ethoxy-3-pyridinyl)oxy]ethoxy}-2-pyrazinyl)-2-methylpiperazine, fumarate] | significantly more than the compounds given alone |  | 
Cl.O=S(=O)(c1ccccc1)n1ccc2c(N3CCNCC3)cccc21 [BVT.5182C, 1-(phenylsulfonyl)-4-(1-piperazinyl)-1H-indole, hydrochloride] | significantly more than the compounds given alone |  | 
C[C@@H]1CNCCN1c1nccnc1OCCOc1cccnc1.O=C(O)/C=C/C(=O)O [PNU-183933F, (2R)-methyl-1-{3-[2-(3-pyridinyloxy)ethoxy]-2-pyrazinyl}piperazine, fumarate] |  | decreased food consumption significantly more than the compounds given alone | 
Cl.Cn1c2c(c3cc(S(=O)(=O)c4ccccc4)ccc31)CCNCC2 [PNU-186053A, 6-methyl-9-(phenylsulfonyl)-1,2,3,4,5,6-hexahydroazepino[4,5-b]indole, hydrochloride] |  | decreased food consumption significantly more than the compounds given alone | 
Cn1c2c(c3ccccc31)CCNCC2 [U-22394A] |  |  | body weight (humans; nine weeks of treatment): reduce body weight
Clc1cccc(N2CCNCC2)c1 [m-CPP, m-chlorophenylpiperazine] |  |  | body weight (humans; two weeks of treatment): reduce body weight; food intake ([1]; mice expressing the mutated inactive form of the 5-HT2C receptor): lacks activity; food intake ([1]; mice that express the normal 5-HT2C receptor): reduces food intake
